Assay results as given in PubChem BioAssay (NCI).
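Here, GI50 denotes the concentration required for 50% inhibition of growth. TGI denotes the concentration required for complete inhibition of growth.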

Legend:
Test in all cases: NCI-60 cell line screen, 384-well format
[1] = tested on: UACC-257 melanoma
[2] = tested on: SW-620 colon
[3] = tested on: NCI/ADR-RES ovarian
[4] = tested on: MDA-MB-468 breast
[5] = tested on: BT-549 breast
[6] = tested on: EKVX NSCLC
[7] = tested on: SF-539 CNS
[8] = tested on: HT29 colon
[9] = tested on: HL-60(TB) leukemia
[10] = tested on: MOLT-4 leukemia
[11] = tested on: HCT-15 colon
[12] = tested on: HOP-92 NSCLC
[13] = tested on: OVCAR-8 ovarian
[14] = tested on: HOP-62 NSCLC
[15] = tested on: T-47D breast
[16] = tested on: NCI-H23 lung
[17] = tested on: SK-OV-3 ovarian
[18] = tested on: PC-3 prostate
[19] = tested on: SF-268 CNS
[20] = tested on: HS 578T breast
[21] = tested on: NCI-H460 NSCLC
[22] = tested on: A549 NSCLC
[23] = tested on: MDA-MB-435 melanoma
[24] = tested on: RPMI-8226 leukemia
[25] = tested on: KM12 colon
[26] = tested on: SF-295 CNS
[27] = tested on: SK-MEL-5 melanoma

COC(=O)N1c2ccc3c(nc(Cc4ccccc4)n3[C@H]3CCC[C@H](C(=O)O)C3)c2CC[C@@H]1C
TGI [1]: 82 µM
GI50 [2]: > 100 µM
TGI [2]: > 100 µM
GI50 [3]: 82.9 µM
TGI [3]: > 100 µM
GI50 [4]: 8.31 µM
TGI [4]: 61.2 µM
GI50 [5]: 2.67 µM
TGI [5]: 37.6 µM
GI50 [6]: 47 µM
TGI [6]: > 100 µM
GI50 [7]: 20.4 µM
TGI [7]: > 100 µM
GI50 [8]: 6.35 µM
TGI [8]: > 100 µM
GI50 [9]: 0.0322 µM
TGI [9]: 1.51 µM
GI50 [10]: 1.94 µM
TGI [10]: 16.5 µM
GI50 [11]: 14.1 µM
TGI [11]: > 100 µM
GI50 [12]: 3.5 µM
TGI [12]: 81.9 µM
GI50 [13]: 6.82 µM
TGI [13]: 54.4 µM
GI50 [14]: 8.43 µM
TGI [14]: > 100 µM
GI50 [15]: 10 µM
TGI [15]: > 100 µM
GI50 [16]: 20 µM
TGI [16]: > 100 µM
GI50 [17]: 18.9 µM
TGI [17]: > 100 µM
GI50 [18]: 4.78 µM
TGI [18]: > 100 µM
GI50 [19]: 24.2 µM
TGI [19]: > 100 µM
GI50 [20]: 1.67 µM
TGI [20]: 33.7 µM
GI50 [21]: 31.5 µM
TGI [21]: > 100 µM
GI50 [22]: 26.6 µM
TGI [22]: > 100 µM
GI50 [23]: 14.5 µM
TGI [23]: > 100 µM
GI50 [24]: 0.133 µM
TGI [24]: 0.314 µM
GI50 [25]: 14.7 µM
TGI [25]: > 100 µM
GI50 [26]: 22 µM
TGI [26]: > 100 µM
GI50 [27]: 2.54 µM
TGI [27]: 15.6 µM
